Several values for one entry are separate records, joined by “and”; a condition that tells them apart may be missing. Identical values can stand only once.
System: KRAS-mutant PDC complex spheroid viability
Assay: Anticancer human tumor 186277-243-T-J2-PDC patient-derived colon adenocarcinoma cell line growth inhibition [KRAS2]
Settings: for viability, T/C: stronger effect = lower value; active means viability on the fitted dose curve at most 10% of control; inactive means the rest
Procedure, shortened: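 KRAS-mutant tumor cells were grown as spheroids with HUVEC endothelial cells and human MSCs as stroma. Targeted agents were tested alone and with KRAS pathway inhibitors. Doses started at or near clinical Cmax, or 10 microM, descending half-log.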

[1] = curve of first compound, second compound 0.1 µM
[2] = curve of first compound, second compound 0.316 µM
[3] = curve of first compound, second compound 1 µM
[4] = curve of first compound, second compound 3.16 µM
[5] = second compound 0.1 µM, first compound 0.000316 µM
[6] = second compound 0.1 µM, first compound 0.001 µM
[7] = second compound 0.1 µM, first compound 0.00316 µM
[8] = second compound 0.1 µM, first compound 0.01 µM
[9] = second compound 0.1 µM, first compound 0.0316 µM
[10] = second compound 0.1 µM, first compound 0.1 µM
[11] = second compound 0.316 µM, first compound 0.000316 µM
[12] = second compound 0.316 µM, first compound 0.001 µM
[13] = second compound 0.316 µM, first compound 0.00316 µM
[14] = second compound 0.316 µM, first compound 0.01 µM
[15] = second compound 0.316 µM, first compound 0.0316 µM
[16] = second compound 0.316 µM, first compound 0.1 µM
[17] = second compound 1 µM, first compound 0.000316 µM
[18] = second compound 1 µM, first compound 0.001 µM
[19] = second compound 1 µM, first compound 0.00316 µM
[20] = second compound 1 µM, first compound 0.01 µM
[21] = second compound 1 µM, first compound 0.0316 µM
[22] = second compound 1 µM, first compound 0.1 µM
[23] = second compound 3.16 µM, first compound 0.000316 µM
[24] = second compound 3.16 µM, first compound 0.001 µM
[25] = second compound 3.16 µM, first compound 0.00316 µM
[26] = second compound 3.16 µM, first compound 0.01 µM
[27] = second compound 3.16 µM, first compound 0.0316 µM
[28] = second compound 3.16 µM, first compound 0.1 µM
[29] = curve of first compound, second compound 10 µM
[30] = second compound 0.1 µM, first compound 0.316 µM
[31] = second compound 0.1 µM, first compound 1 µM
[32] = second compound 0.1 µM, first compound 3.16 µM
[33] = second compound 0.1 µM, first compound 10 µM
[34] = second compound 0.316 µM, first compound 0.316 µM
[35] = second compound 0.316 µM, first compound 1 µM
[36] = second compound 0.316 µM, first compound 3.16 µM
[37] = second compound 0.316 µM, first compound 10 µM
[38] = second compound 1 µM, first compound 0.316 µM
[39] = second compound 1 µM, first compound 1 µM
[40] = second compound 1 µM, first compound 3.16 µM
[41] = second compound 1 µM, first compound 10 µM
[42] = second compound 3.16 µM, first compound 0.316 µM
[43] = second compound 3.16 µM, first compound 1 µM
[44] = second compound 3.16 µM, first compound 3.16 µM
[45] = second compound 3.16 µM, first compound 10 µM
[46] = second compound 10 µM, first compound 0.0316 µM
[47] = second compound 10 µM, first compound 0.1 µM
[48] = second compound 10 µM, first compound 0.316 µM
[49] = second compound 10 µM, first compound 1 µM
[50] = second compound 10 µM, first compound 3.16 µM
[51] = second compound 10 µM, first compound 10 µM
[52] = second compound 10 µM, first compound 0.01 µM
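Wherever viability, T/C is given: viability read after seven days of compound exposure; 100% = DMSO vehicle-treated spheroids so lower means less viable.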

CN(C)C/C=C/C(=O)Nc1cc2c(Nc3ccc(F)c(Cl)c3)ncnc2cc1O[C@H]1CCOC1 + C=CC(=O)N1CCN(c2nc(OCC3CCCN3C)nc3c2CCN(c2cccc4cccc(C)c24)C3)CC1CC#N
active: viability, T/C [23] 0.97% | viability, T/C [24] 0.41% | viability, T/C [25] 0.31% | viability, T/C [26] 0.31% | viability, T/C [27] 0.23% | viability, T/C [28] 0.38%
inactive: viability, T/C (second compound 0.0316 µM, first compound 0.000316 µM) 98.6% | viability, T/C (second compound 0.0316 µM, first compound 0.001 µM) 106% | viability, T/C (second compound 0.0316 µM, first compound 0.00316 µM) 100% | viability, T/C (second compound 0.0316 µM, first compound 0.01 µM) 103% | viability, T/C (second compound 0.0316 µM, first compound 0.0316 µM) 118% | viability, T/C (second compound 0.0316 µM, first compound 0.1 µM) 112% | viability, T/C [5] 109% | viability, T/C [6] 95.5% | viability, T/C [7] 94% | viability, T/C [8] 117% | viability, T/C [9] 110% | viability, T/C [10] 105% | viability, T/C [11] 102% | viability, T/C [12] 102% | viability, T/C [13] 103% | viability, T/C [14] 109% | viability, T/C [15] 111% | viability, T/C [16] 105% | viability, T/C [17] 94.6% | viability, T/C [18] 94.5% | viability, T/C [19] 112% | viability, T/C [20] 106% | viability, T/C [21] 98.7% | viability, T/C [22] 105%
< 0.316 nM: IC50 [4]
> 100 nM: IC50 (curve of first compound, second compound 0.0316 µM) | IC50 [1] | IC50 [2] | IC50 [3]

CC1(C)CCC(CN2CCN(c3ccc(C(=O)NS(=O)(=O)c4ccc(NCC5CCOCC5)c([N+](=O)[O-])c4)c(Oc4cnc5[nH]ccc5c4)c3)CC2)=C(c2ccc(Cl)cc2)C1 + CC1OCC2(CCN(c3cnc(Sc4ccnc(N)c4Cl)c(N)n3)CC2)C1N
1550 nM: IC50 [29]
inactive: viability, T/C [9] 103% | viability, T/C [10] 115% | viability, T/C [30] 127% | viability, T/C [31] 120% | viability, T/C [32] 23.1% | viability, T/C [15] 128% | viability, T/C [16] 136% | viability, T/C [34] 130% | viability, T/C [35] 130% | viability, T/C [36] 22.1% | viability, T/C [21] 140% | viability, T/C [22] 115% | viability, T/C [38] 113% | viability, T/C [39] 116% | viability, T/C [40] 16% | viability, T/C [27] 98.9% | viability, T/C [28] 112% | viability, T/C [42] 100% | viability, T/C [43] 93.8% | viability, T/C [46] 80.1% | viability, T/C [47] 82.7% | viability, T/C [48] 87.7% | viability, T/C [49] 79%
1750 nM: IC50 [4]
2350 nM: IC50 [2]
2130 nM: IC50 [3]
active: viability, T/C [33] 0.76% | viability, T/C [37] 0.38% | viability, T/C [41] 0.34% | viability, T/C [44] 3.38% | viability, T/C [45] 0.22% | viability, T/C [50] 2.4% | viability, T/C [51] 0.21%
2270 nM: IC50 [1]

CC(C)NCC(C(=O)N1CCN(c2ncnc3c2C(C)CC3O)CC1)c1ccc(Cl)cc1 (stereo not given) + CC1OCC2(CCN(c3cnc(Sc4ccnc(N)c4Cl)c(N)n3)CC2)C1N
389 nM: IC50 [2]
57.2 nM: IC50 [29]
498 nM: IC50 [1]
active: viability, T/C [37] 7.17% | viability, T/C [40] 10.7% | viability, T/C [41] 4.01% | viability, T/C [43] 8.57% | viability, T/C [44] 3.93% | viability, T/C [45] 2.37% | viability, T/C [48] 9.46% | viability, T/C [49] 3.07% | viability, T/C [50] 1.79% | viability, T/C [51] 1.34%
inactive: viability, T/C [9] 110% | viability, T/C [10] 98.2% | viability, T/C [30] 55.2% | viability, T/C [31] 34.9% | viability, T/C [32] 25.7% | viability, T/C [33] 9.35% | viability, T/C [15] 134% | viability, T/C [16] 96.9% | viability, T/C [34] 54.3% | viability, T/C [35] 26.5% | viability, T/C [36] 17.3% | viability, T/C [21] 115% | viability, T/C [22] 94% | viability, T/C [38] 41.5% | viability, T/C [39] 16% | viability, T/C [27] 86.5% | viability, T/C [28] 58.3% | viability, T/C [42] 25.6% | viability, T/C [46] 65.1% | viability, T/C [47] 35.8%
134 nM: IC50 [4]
268 nM: IC50 [3]

C=CC(=O)N1CCN(c2nc(=O)n(-c3c(C)ccnc3C(C)C)c3nc(-c4c(O)cccc4F)c(F)cc23)C(C)C1 (stereo not given)
> 10000 nM and 9920 nM and 2890 nM: IC50 (compound alone, run of 07/12/2021)
> 10000 nM and 8520 nM: IC50 (compound alone, run of 07/19/2021)
> 10000 nM: IC50 (compound alone, run of 07/26/2021)
inactive: viability, T/C (compound 0.1 µM) 98.1% [middle of 17 runs] | viability, T/C (compound 1 µM) 96.4% [middle of 17 runs]

CN(C)C/C=C/C(=O)Nc1cc2c(Nc3ccc(F)c(Cl)c3)ncnc2cc1O[C@H]1CCOC1 + CC1OCC2(CCN(c3cnc(Sc4ccnc(N)c4Cl)c(N)n3)CC2)C1N
28.9 nM: IC50 [4]
inactive: viability, T/C [5] 92.7% | viability, T/C [6] 104% | viability, T/C [7] 104% | viability, T/C [8] 126% | viability, T/C [9] 100% | viability, T/C [10] 108% | viability, T/C [11] 103% | viability, T/C [12] 101% | viability, T/C [13] 112% | viability, T/C [14] 104% | viability, T/C [15] 84.5% | viability, T/C [16] 81.4% | viability, T/C [17] 92.5% | viability, T/C [18] 90.5% | viability, T/C [19] 93.5% | viability, T/C [20] 99.8% | viability, T/C [21] 99.8% | viability, T/C [22] 99.5% | viability, T/C [23] 97.8% | viability, T/C [24] 81.3% | viability, T/C [25] 87.7% | viability, T/C [26] 62.6% | viability, T/C [27] 49.4% | viability, T/C [28] 34.6% | viability, T/C (second compound 10 µM, first compound 0.000316 µM) 92.9% | viability, T/C (second compound 10 µM, first compound 0.001 µM) 92% | viability, T/C (second compound 10 µM, first compound 0.00316 µM) 79.6% | viability, T/C [52] 103% | viability, T/C [46] 44.6% | viability, T/C [47] 38.4%
27.8 nM: IC50 [29]
> 100 nM: IC50 [1] | IC50 [2] | IC50 [3]

CC(=O)OC12COC1CC(O)C1(C)C(=O)C(O)C3=C(C)C(OC(=O)C(O)C(NC(=O)OC(C)(C)C)c4ccccc4)CC(O)(C(OC(=O)c4ccccc4)C21)C3(C)C (stereo not given) + C=CC(=O)N1CCN(c2nc(=O)n(-c3c(C)ccnc3C(C)C)c3nc(-c4c(O)cccc4F)c(F)cc23)C(C)C1
active: viability, T/C [8] 6.27% | viability, T/C [9] 4.61% | viability, T/C [10] 3.18% | viability, T/C [30] 3.25% | viability, T/C [31] 3.42% | viability, T/C [32] 3.34% | viability, T/C [14] 6.24% | viability, T/C [15] 4% | viability, T/C [16] 3.67% | viability, T/C [34] 3.33% | viability, T/C [35] 3.62% | viability, T/C [36] 4% | viability, T/C [20] 6.82% | viability, T/C [21] 4.03% | viability, T/C [22] 3.81% | viability, T/C [38] 3.93% | viability, T/C [39] 4% | viability, T/C [40] 4.32% | viability, T/C [26] 6.24% | viability, T/C [27] 4.69% | viability, T/C [28] 3.98% | viability, T/C [42] 4.34% | viability, T/C [43] 4.7% | viability, T/C [44] 4.34% | viability, T/C [52] 6.5% | viability, T/C [46] 5.4% | viability, T/C [47] 5.36% | viability, T/C [48] 5.19% | viability, T/C [49] 5.08% | viability, T/C [50] 4.88%
< 10 nM: IC50 [1] | IC50 [2] | IC50 [3] | IC50 [4] | IC50 [29]

— PubChem BioAssay AID1963875 (Molecular Pharmacology Branch, DTP, NCI, 2024)
